In patent US8946224B2, “Substituted [1,2,4]triazolo[4,3-A]pyrazines for medicaments and pharmaceutical compositions” (Redx Pharma Limited, priority 2010, dated 2015):
pEC50, pIC50: −log10 of the molar value. ≈ marks a conversion by molar mass, not a printed value. Where “and” joins values, the source holds several entries; their conditions need not be identical. Identical values can stand only once. Like-named read-outs stand apart in the source and are kept apart here. Non-standard residues stand in square brackets, D forms with d. Residues, ends and D or L forms follow the SMILES beside them. Sta = CC(C)C[C@H](N)[C@@H](O)CC(=O)O

How the values were obtained:
[1] = target: neuraminidase of oseltamivir-sensitive influenza virus (UniProt P03468); type: biochemical
DPPIV = DPPIV (Homo sapiens, UniProt P27487); assay: DPPIV protease inhibition, substrate Gly-Pro-AMC (Example 97); type: biochemical
Protocol: (§1) The solutions of the compounds to be tested were prepared in DMSO at a concentration of 10 mM, divided into aliquots and stored at −20° C. The stock solutions were further diluted with assay buffer to make final test solutions. All the final test solutions contained no more than 2.0% DMSO.
(§2) Data were recorded by PHEARstar^PLUS.
(§3) Each assay was repeated for each compound 10 times.

[2] = tested on: PathHunter NHRPro cell lines; assay: PathHunter NHRPro cell assay, agonist format (Examples 90-92); type: cell-based; conditions: RARβ, NHR Protein Interaction; for Emax: read-out: Max Response; for pEC50: read-out: RC50 (EC50)
Protocol: Methodology for Examples 90-92 Cell Handling
PathHunter NHRPro cell lines were expanded from freezer stocks in T25 flasks according to standard procedures and maintained in selective growth media prior to assay.
Once it was established that the cells were healthy and growing normally, cells were passaged from flasks using cell dissociation reagent and seeded into white walled clear bottom 384-well microplates for compound profiling.
For profiling, cells were seeded at a density of 10000 cells per well in a total volume of 20 μL and were allowed to adhere and recover overnight prior to compound addition. Media contained charcoal-dextran filtered serum to reduce the level of hormones present.
Intermediate dilution of compound stocks were generated such that 5 μL of 5× compound could be added to each well with a final DMSO concentration of 1% of total volume.
For profiling compound in agonist mode, the cells were incubated in the presence of compound at 37° C. for 5 hours.
After appropriate compound incubation, assay signal was generated through a single addition of 15 μL (50% v/v) of PathHunter Detection reagent cocktail for agonist and antagonist assays respectively followed by one hour incubation at room temperature.
Microplates were read following signal generation with a PerkinElmer Envision™ instrument for chemiluminescent signal detection.
Dose curves in the presence and absence of compound were plotted using GraphPad Prism or Activity Base.
For the agonist mode, percentage activity was calculated using the following formula: % Activity=100%×(Mean RLU of test sample−mean RLU of vehicle control)/(mean MAX RLU control ligand−mean RLU of vehicle control).

[3] = tested on: anaerobic bacterial strains; assay: microbe, parasite or virus in culture; type: cell-based, bacteria; conditions: read-out: MIC (>90%)
[4] = tested on: PathHunter NHRPro cell lines; assay: PathHunter NHRPro cell assay, agonist format (Examples 90-92); type: cell-based; conditions: for pEC50: read-out: RC50 (EC50)
plasma triglycerides = assay: Rat plasma triglyceride levels after 3 or 5 days BID treatment; type: in vivo; conditions: 25 mg/kg po BID for 3 or 5 days, 16 hours after the last dose
Protocol: The efficacy of particular rosuvastatin compounds was then determined in vivo.
112 male SD rats (Harlan) were housed in groups of 6 under a 12 h light dark cycle (lights on 07.00 h) with free access to food (normal laboratory chow) and water. Animals between 148-183 g were allocated to treatment groups of 8 balanced by body weight and treatments were balanced across cages.
The rosuvastatin analogues were made up in 10% PEG300/10% cremophor/80% methyl cellulose (0.5%) (vehicle 1) to make a 5 mg/mL solution. The rosuvastatin compounds used were:
Rosuvastatin was formulated in 0.5% Tween in 0.5% methyl cellulose (vehicle 2) at 5 mg/kg as a suspension.
Rats were orally dosed with vehicle 1, one of the rosuvastatin analogues in vehicle 1 (25 mg/kg), vehicle 2 or rosuvastatin in vehicle 2 (25 mg/kg po), BID for 3 or 5 days.
Sixteen hours after the last treatment, terminal plasma samples were taken, stored at −20° C., and transported on dry ice for analysis of triglyceride levels.
Data for each time-point were analysed by 1-way ANOVA and post-hoc Dunnett's test.

renin = target: T1, renin (Homo sapiens, UniProt P00797); assay: Renin inhibition (Comparative Example 98); type: biochemical
T1 sequence (P00797 67-406): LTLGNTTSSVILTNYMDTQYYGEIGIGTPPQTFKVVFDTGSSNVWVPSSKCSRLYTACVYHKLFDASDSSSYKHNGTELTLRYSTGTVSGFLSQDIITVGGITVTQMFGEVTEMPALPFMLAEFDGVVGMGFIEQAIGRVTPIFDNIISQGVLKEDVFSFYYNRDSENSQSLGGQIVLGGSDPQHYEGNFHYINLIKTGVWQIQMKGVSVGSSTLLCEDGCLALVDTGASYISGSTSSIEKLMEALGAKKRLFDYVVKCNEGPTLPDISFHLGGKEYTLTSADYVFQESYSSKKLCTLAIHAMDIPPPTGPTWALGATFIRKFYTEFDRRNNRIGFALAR
Protocol: as §1, §2, §3

HepG2 cells = assay: HepG2 cytotoxicity, MTT, 72 hours (Examples 93-95); type: cell-based; conditions: Cell Loss, Example 95, dosed 0.04-100 μM (compound 13b 0.02-50 μM)
Protocol: Methodology for Examples 93-95
A number of analogues were tested for their ability to kill cancer cells.
HepG2 cells were plated on 96-well tissue culture treated polystyrene plates at 0.5×10^4 cells in 100 μL per well. After 24 hr the cells are dosed with test compound at a range of concentrations and incubated for 72 hours. One hour prior to the end of the incubation period, the cells are loaded with MU [yellow; 3-(4,5-dimethyl-2-thiazolyl)-2,5-diphenyl-2H-tetrazolium bromide], the plates are dried and re-solubilised using DMSO. The plates are then scanned using SpectraFluor Plus (TECAN).
Cytotoxicity was assessed using MU. The assay provides a measurement of mitochondrial dehydrogenase activity and cell loss.
A decrease can indicate a loss of cells indicating toxicity due to necrosis, apoptosis or a reduction in cellular proliferation.
A decrease can also indicate an effect on mitochondrial function as mitochondrial dehydrogenasesreduce the MTT [yellow; 3-(4,5-dimethyl-2-thiazolyl)-2,5-diphenyl-2H-tetrazolium bromide] to formazan. The formazan is detected in this assay.
The cells were dosed at concentrations of 0.04, 0.1, 0.4, 1, 4, 10, 40 and 100 μM. The assay was repeated three times at each concentration.
AC50=The concentration at which 50% maximum effect is observed for each cell health parameter.
The cells were dosed at concentrations of 0.02, 0.05, 0.2, 0.5, 2, 5, 20 and 50 μM. The assay was repeated three times at each concentration.
The cells were dosed at concentrations of 0.04, 0.1, 0.4, 1, 4, 10, 40 and 100 μM for bexarotene and the compound of formula 102 when Z is CH═NOH (compound 13a). The cells were dosed at concentrations of 0.02, 0.05, 0.2, 0.5, 2, 5, 20 and 50 μM for the compound of formula 102 when Z is CH═NOMe (compound 13b). The assay was repeated three times at each concentration.

[5] = Bacteroides fragilis, ATCC25293, 48 h
[6] = Prevotella melaninogenica, ATCC25845, 48 h

DPPIV, sequence (P27487 whole entry, species assumed): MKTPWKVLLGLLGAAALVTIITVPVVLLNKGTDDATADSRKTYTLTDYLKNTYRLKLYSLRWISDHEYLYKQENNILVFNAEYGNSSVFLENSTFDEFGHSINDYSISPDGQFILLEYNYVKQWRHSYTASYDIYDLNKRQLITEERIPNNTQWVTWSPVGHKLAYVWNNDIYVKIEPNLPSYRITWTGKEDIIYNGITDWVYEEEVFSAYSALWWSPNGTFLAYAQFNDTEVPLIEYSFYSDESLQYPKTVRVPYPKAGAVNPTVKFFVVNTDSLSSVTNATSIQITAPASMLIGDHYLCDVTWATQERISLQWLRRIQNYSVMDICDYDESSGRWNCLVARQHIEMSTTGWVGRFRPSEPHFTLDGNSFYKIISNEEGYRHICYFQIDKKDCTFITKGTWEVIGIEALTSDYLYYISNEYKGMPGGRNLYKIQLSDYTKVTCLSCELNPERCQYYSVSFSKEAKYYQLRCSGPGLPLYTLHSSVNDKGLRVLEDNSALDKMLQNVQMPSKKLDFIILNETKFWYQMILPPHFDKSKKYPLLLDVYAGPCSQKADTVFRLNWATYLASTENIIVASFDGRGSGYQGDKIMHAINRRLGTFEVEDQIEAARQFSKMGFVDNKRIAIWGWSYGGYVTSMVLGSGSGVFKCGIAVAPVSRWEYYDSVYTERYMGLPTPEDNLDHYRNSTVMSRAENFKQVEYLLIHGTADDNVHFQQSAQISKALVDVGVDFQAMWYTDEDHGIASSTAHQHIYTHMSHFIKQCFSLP
neuraminidase of oseltamivir-sensitive influenza virus, sequence (P03468 whole entry, looked up): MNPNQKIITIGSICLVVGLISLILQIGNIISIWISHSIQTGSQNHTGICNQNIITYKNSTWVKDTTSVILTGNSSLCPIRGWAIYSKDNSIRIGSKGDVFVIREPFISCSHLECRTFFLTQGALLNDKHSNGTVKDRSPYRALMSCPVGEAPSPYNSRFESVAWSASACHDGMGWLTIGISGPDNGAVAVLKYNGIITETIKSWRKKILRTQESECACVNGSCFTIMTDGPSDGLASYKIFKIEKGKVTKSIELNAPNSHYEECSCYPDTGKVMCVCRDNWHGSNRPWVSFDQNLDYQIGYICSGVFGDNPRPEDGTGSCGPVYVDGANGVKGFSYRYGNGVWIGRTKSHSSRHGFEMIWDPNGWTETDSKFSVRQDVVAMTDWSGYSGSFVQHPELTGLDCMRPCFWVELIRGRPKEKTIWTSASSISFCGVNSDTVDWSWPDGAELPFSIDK

CCOC(=O)C1=C[C@@H](OC(CC)CC)[C@H](NC(C)=O)[C@@H](N)C1 [Oseltamivir, oseltamivir, reference compound]
EC90 [1]: 1.3 nM

CON=C(CC(=O)N1CCn2c(nnc2C(F)(F)F)C1)Cc1cc(F)c(F)cc1F (mixture of isomers) [Compound 24b, 3-(Methoxyimino)-1-(3-(trifluoromethyl)-5,6-dihydro-[1,2,4]triazolo[4,3-a]pyrazin-7(8H)-yl)-4-(2,4,5-trifluorophenyl)butan-1-one]
Activity as inhibitor of DPPIV (in words) (DPPIV): did not exhibit significant activity

COCCCOc1cc(CC(CC2NC(=O)OC2CC(C(=O)NCC(C)(C)C#N)C(C)C)C(C)C)ccc1OC (stereo not shown) [comparative example]
Anti-influenza neuraminidase activity (in words) [1]: No activity was observed

COc1ccc(-c2ccc3cc(C(=O)O)ccc3c2)cc1C12CC3CC(CC(C3)C1)C2 [Adapalene]
Emax [2]: 147% | pEC50 [2]: 8.74

CON=CCn1c([N+](=O)[O-])cnc1C [Compound 3b, 2-(2-Methyl-5-nitro-1H-imidazol-1-yl)acetaldehyde O-methyl oxime]
MIC [3, 5]: 0.5 µg/mL (≈ 2.52 µM) | MIC ([3]; Clostridioides difficile, 48 h): ≤ 0.25 µg/mL | MIC ([3]; Clostridium perfringens, 48 h): 1 µg/mL (≈ 5.05 µM) | MIC [3, 6]: 0.5 µg/mL (≈ 2.52 µM)

NC(=O)CC[C@@H]1NC(=O)[C@H](Cc2ccccc2)NC(=O)[C@H](Cc2ccc(O)cc2)NC(=O)[C@@H](N)CSSC[C@@H](C(=O)N2CCC[C@H]2C(=O)N[C@@H](CCCN=C(N)N)C(=O)NCC(N)=O)NC(=O)[C@H](CC(N)=O)NC1=O [Vasopressin]
Max Response ([4]; AVPR2, Arrestin): 101.99 | pEC50 ([4]; AVPR2, Arrestin): 9.12

COc1ccc(-c2ccc3cc(CO)ccc3c2)cc1C12CC3CC(CC(C3)C1)C2 [Formula 135; Z is CH2OH]
Max Response [2]: 131.9 | pEC50 [2]: 6.70

CC1=C(/C=C/C(C)=C\C=C\C(C)=C\C(=O)O)C(C)(C)CCC1 [9 Cis Retanoic acid]
Max Response [2]: 87.826 and 98.978 | pEC50 [2]: 8.30 and 8.15

CC(C)c1nc(N(C)S(C)(=O)=O)nc(-c2ccc(F)cc2)c1/C=C/[C@@H](O)C[C@@H](O)CC(=O)O [Rosuvastatin, reference compound]
In vivo (plasma triglycerides) (plasma triglycerides; 25 mg/kg): Reduction in | In vivo (plasma triglycerides) (plasma triglycerides; listed as rosuvastatin, 25 mg/kg): marked reduction in plasma triglycerides

COC(Cn1c([N+](=O)[O-])cnc1C)OC [Compound 3a, 1-(2,2-Dimethoxyethyl)-2-methyl-5-nitro-1H-imidazole]
MIC [3, 5]: 0.5 µg/mL (≈ 2.32 µM) | MIC ([3]; Clostridioides difficile, 48 h): ≤ 0.25 µg/mL | MIC ([3]; Clostridium perfringens, 48 h): 1 µg/mL (≈ 4.65 µM) | MIC [3, 6]: 0.5 µg/mL (≈ 2.32 µM)

CON=Cc1ccc2cc(-c3ccc(OC)c(C45CC6CC(CC(C6)C4)C5)c3)ccc2c1 [Compound 5b, 6-(3-(Adamantan-1-yl)-4-methoxyphenyl)-2-naphthaldehyde O-methyl oxime]
Emax [2]: 81.1% | pEC50 [2]: 6.08

N[C@@H](CCN1CCn2c(nnc2C(F)(F)F)C1)Cc1cc(F)c(F)cc1F [Compound 24a, (R)-4-(3-(Trifluoromethyl)-5,6-dihydro-[1,2,4]triazolo[4,3-a]pyrazin-7(8H)-yl)-1-(2,4,5-trifluorophenyl)butan-2-amine]
Activity as inhibitor of DPPIV (in words) (DPPIV): showed an activity | pIC50 (DPPIV; DPPIV, substrate Gly-Pro-AMC): 7.09

Cc1ncc([N+](=O)[O-])n1CCO [Metronidazole, metronidazole, reference compound]
MIC [3, 5]: 0.25 µg/mL (≈ 1.46 µM) | MIC ([3]; Clostridioides difficile, 48 h): ≤ 0.25 µg/mL | MIC ([3]; Clostridium perfringens, 48 h): 0.5 µg/mL (≈ 2.92 µM) | MIC [3, 6]: 0.25 µg/mL (≈ 1.46 µM)

CC(C)OC1C[C@H](OCc2ccccc2)C[C@@H](/C=C/c2c(-c3ccc(F)cc3)nc(N(C)S(C)(=O)=O)nc2C(C)C)O1 (stereo partly shown)
In vivo (plasma triglycerides) (plasma triglycerides): Reduction in plasma triglycerides

CC(=O)N[C@@H](Cc1c[nH]cn1)C(=O)N1CCC[C@H]1C(=O)N[C@@H](Cc1ccccc1)C(=O)N[C@H](C(=O)N[C@@H](CC(C)C)[C@@H](O)CC(=O)N[C@@H](CC(C)C)C(=O)N[C@@H](Cc1ccccc1)C(N)=O)C(C)C [Positive control, Ac-HPFV-(Sta)-LF-NH2] (Ac-HPFV[Sta]LF-NH2)
pIC50 (renin): 8.08

C=C(c1ccc(C=NO)cc1)c1cc2c(cc1C)C(C)(C)CCC2(C)C [Compound 13a, 4-(1-(3,5,5,8,8-Pentamethyl-5,6,7,8-tetrahydronaphthalen-2-yl)vinyl)benzaldehyde oxime]
MEC (minimum effective concentration that significantly crosses vehicle threshold) (HepG2 cells): 40 µM | AC50 (HepG2 cells; Homo sapiens, HepG2, read-out: AC50 (concentration at which 50% maximum effect is observed)): 15800 nM

COc1ccc(-c2ccc3cc(C=NO)ccc3c2)cc1C12CC3CC(CC(C3)C1)C2 [Compound 5a, 6-(3-(Adamantan-1-yl)-4-methoxyphenyl)-2-naphthaldehyde oxime]
Emax [2]: 45.1% | pEC50 [2]: 5.89

COc1ccc(-c2ccc3cc(C=O)ccc3c2)cc1C12CC3CC(CC(C3)C1)C2 [Formula 135; Z is C(O)H]
Max Response [2]: 115.93 | pEC50 [2]: 6.85

Angiotensin II (DRVYIHPF; Angiotensin-2; UniProt P01019 25-32, looked up)
Max Response ([4]; AGTR1, Arrestin): 101.02 | pEC50 ([4]; AGTR1, Arrestin): 7.99

COC1C[C@H](OC(=O)c2cccnc2)C[C@@H](/C=C/c2c(-c3ccc(F)cc3)nc(N(C)S(C)(=O)=O)nc2C(C)C)O1 (stereo partly shown)
In vivo (plasma triglycerides) (plasma triglycerides): Reduction in plasma triglycerides
